Laboratory results: ChEMBL document CHEMBL3045500, “Antituberculosis and antibacterial evaluations of some novel phenyl pyrazolone-substituted 1h-benzo[g]pyrazolo[3,4-b]quinoline-3-ylamine derivatives” (2012)
Values after ≈ are worked out from the molar mass of the structure shown.

Legend:
Escherichia coli [1] = experiment: microbe, parasite or virus in culture; conditions: MTCC 739, 24 h, read-out: IZ
Description: Antimicrobial activity against Escherichia coli MTCC 739 at 100 ug/disk after 24 hr by disk diffusion method

Escherichia coli [2] = experiment: Antimicrobial activity against Escherichia coli MTCC 739 after 24 hr by disk diffusion method; assay type: functional; conditions: for MIC: Escherichia coli, MTCC 739, 24 h
Bacillus subtilis [3] = experiment: Antimicrobial activity against Bacillus subtilis MTCC 619 after 24 hr by disk diffusion method; assay type: functional; conditions: for MIC: Bacillus subtilis, MTCC 619, 24 h
Staphylococcus aureus [4] = experiment: Antimicrobial activity against Staphylococcus aureus MTCC 96 at 100 ug/disc after 24 hr by disk diffusion method; conditions: MTCC 96, 24 h, read-out: IZ
Pseudomonas aeruginosa [5] = experiment: Antimicrobial activity against Pseudomonas aeruginosa MTCC 741 after 24 hr by disk diffusion method; assay type: functional; conditions: for MIC: Pseudomonas aeruginosa, MTCC 741, 24 h
Staphylococcus aureus [6] = experiment: Antimicrobial activity against Staphylococcus aureus MTCC 96 after 24 hr by disk diffusion method; assay type: functional; conditions: for MIC: Staphylococcus aureus, MTCC 96, 24 h
Bacillus subtilis [7] = experiment: microbe, parasite or virus in culture; conditions: MTCC 619, 24 h, read-out: IZ
Description: Antimicrobial activity against Bacillus subtilis MTCC 619 at 100 ug/disk after 24 hr by disk diffusion method

Pseudomonas aeruginosa [8] = experiment: microbe, parasite or virus in culture; conditions: MTCC 741, 24 h, read-out: IZ
Description: Antimicrobial activity against Pseudomonas aeruginosa MTCC 741 at 100 ug/disk after 24 hr by disk diffusion method

[9] = test system: Mycobacterium tuberculosis; experiment: Antimicrobial activity against Mycobacterium tuberculosis H37Rv after 10 days by BACTEC MGIT method; assay type: functional; conditions: 240 h

SMILES	zone of inhibition at 100 µg/disc (Escherichia coli [1]) [mm]	MIC (Escherichia coli [2]) [µg/mL]	MIC (Bacillus subtilis [3]) [µg/mL]	zone of inhibition at 100 µg/disc (Staphylococcus aureus [4]) [mm]	MIC (Pseudomonas aeruginosa [5]) [µg/mL]	MIC (Staphylococcus aureus [6]) [µg/mL]	zone of inhibition at 100 µg/disc (Bacillus subtilis [7]) [mm]	zone of inhibition at 100 µg/disc (Pseudomonas aeruginosa [8]) [mm]	MIC99 [9] [µg/mL]	inhibition zone (IZ) (Escherichia coli [2]) [mm]	inhibition zone (IZ) (Bacillus subtilis [3]) [mm]	inhibition zone (IZ) (Pseudomonas aeruginosa [5]) [mm]	inhibition zone (IZ) (Staphylococcus aureus [6]) [mm]
O=C(O)c1cn(C2CC2)c2cc(N3CCNCC3)c(F)cc2c1=O [CIPROFLOXACIN]	30	≤ 1	≤ 1	32	≤ 1	≤ 1	33	31					
CC1=NN(c2cc(Cl)c(S(=O)(=O)O)cc2Cl)C(=O)C1/N=N/c1n[nH]c2nc3cc4ccccc4cc3cc12 (centres undefined)		100 (≈ 176 µM)	50 (≈ 88 µM)		100 (≈ 176 µM)	50 (≈ 88 µM)			500 (≈ 880 µM)	16	20	15	18
CC1=NN(c2cc(S(=O)(=O)O)ccc2Cl)C(=O)C1/N=N/c1n[nH]c2nc3cc4ccccc4cc3cc12 (centres undefined)		100 (≈ 187 µM)	50 (≈ 93.6 µM)		100 (≈ 187 µM)	50 (≈ 93.6 µM)			1000 (≈ 1870 µM)	18	14	14	18
CC1=NN(c2cccc(S(=O)(=O)O)c2)C(=O)C1/N=N/c1n[nH]c2nc3cc4ccccc4cc3cc12 (centres undefined)		100 (≈ 200 µM)	100 (≈ 200 µM)		100 (≈ 200 µM)	100 (≈ 200 µM)			500 (≈ 1000 µM)	10	12	<10	11
CC1=NN(c2ccc(C)cc2)C(=O)C1/N=N/c1n[nH]c2nc3cc4ccccc4cc3cc12 (centres undefined)		100 (≈ 231 µM)	50 (≈ 115 µM)		100 (≈ 231 µM)	50 (≈ 115 µM)			125 (≈ 288 µM)	12	16	14	14
CC1=NN(c2cccc(Cl)c2)C(=O)C1/N=N/c1n[nH]c2nc3cc4ccccc4cc3cc12 (centres undefined)		50 (≈ 110 µM)	50 (≈ 110 µM)		50 (≈ 110 µM)	50 (≈ 110 µM)			250 (≈ 551 µM)	17	18	15	16
CC1=NN(c2cc(Cl)ccc2Cl)C(=O)C1/N=N/c1n[nH]c2nc3cc4ccccc4cc3cc12 (centres undefined)		50 (≈ 102 µM)	20 (≈ 41 µM)		50 (≈ 102 µM)	20 (≈ 41 µM)			62.5 (≈ 128 µM)	19	24	18	22
CC1=NN(c2ccc(S(=O)(=O)O)cc2C)C(=O)C1/N=N/c1n[nH]c2nc3cc4ccccc4cc3cc12 (centres undefined)		100 (≈ 195 µM)	100 (≈ 195 µM)		100 (≈ 195 µM)	100 (≈ 195 µM)			500 (≈ 974 µM)	12	11	11	12
CC1=NN(c2ccccc2Cl)C(=O)C1/N=N/c1n[nH]c2nc3cc4ccccc4cc3cc12 (centres undefined)		50 (≈ 110 µM)	50 (≈ 110 µM)		50 (≈ 110 µM)	50 (≈ 110 µM)			250 (≈ 551 µM)	16	16	16	16
NNC(=O)c1ccncc1 [ISONIAZID]									0.2 (≈ 1.46 µM)				
CC1=NN(c2ccc(Cl)c(Cl)c2)C(=O)C1/N=N/c1n[nH]c2nc3cc4ccccc4cc3cc12 (centres undefined)		50 (≈ 102 µM)	20 (≈ 41 µM)		50 (≈ 102 µM)	20 (≈ 41 µM)			62.5 (≈ 128 µM)	20	24	21	20
CC1=NN(c2ccc(S(=O)(=O)O)cc2)C(=O)C1/N=N/c1n[nH]c2nc3cc4ccccc4cc3cc12 (centres undefined)		100 (≈ 200 µM)	100 (≈ 200 µM)		100 (≈ 200 µM)	100 (≈ 200 µM)			1000 (≈ 2000 µM)	10	12	<10	14
